Read-outs that look alike come from different tables or passages of the source.
System: LPS-stimulated pERK in monocytes (TPL2 pathway)
Assay: Ex vivo LPS-stimulated pERK in monocytes of whole blood after Compound 1 dosing (flow cytometry)
Design: species or system human
Details: for inhibition at 75 mg: Homo sapiens, Monocyte, 75 mg QD multiple dose, read-out: pERK Signal, % Inhibition
Experimental: For Cohorts 1-4, whole blood PD sampling occurred relative to the dose of Compound 1 at the following time points: • Day 1: 0 pre-dose (≤5 min prior to dosing), 1, 2, 3, 4, 8, 12, 24 and 36 hours post-dose
For Cohorts 5-9, whole blood PD sampling occurred relative to the dose of Compound 1 at the following time points: • Day 1: 0 pre-dose (≤5 min prior to dosing), 1, 2, 3, 4, 8, 12, and 24 hours post-dose • Day 10: 0 pre-dose (≤5 min prior to dosing), 1, 2, 3, 4, 8, 12, 24, 36, 48, 72, 96, and 120 hours post-dose
Whole blood PD Samples were stimulated ex vivo with lipopolysaccharide (LPS) or phosphate buffered saline (PBS), and the phosphorylation of extracellular signal-related kinase (pERK) was detected in monocytes by flow cytometry.
Pharmacodynamic changes after single and multiple doses of Compound 1 were also investigated by monitoring, in whole blood samples, stimulated with either lipopolysaccharide (LPS) or PBS for 15 minutes at 37° C. Changes to the phosphorylation of extracellular signal-regulated kinases (pERK) was measured in monocytes by flow cytometry, defined as CD15−CD14+.
Pharmacodynamic parameters for Compound 1 were calculated as percent change in pERK signal relative to Day 1 pre-dose (baseline) for all evaluable participants.
Multiple Ascending Doses: Pharmacodynamic parameters after multiple doses of Compound 1 were also calculated as percent change in pERK signal relative to Day 1 pre-dose (baseline) for all evaluable participants.

Question: How did the “median percent change in pERK relative to baseline” value (75 mg QD, Day 10, 12 hours post-last dose) turn out when Cn1ccc2c([C@@H](c3cn(C45CC(C4)C5)nn3)N(C(=O)OCOP(=O)(O)O)c3cc(Cl)c4ncc(C#N)c(NCC(C)(C)C)c4c3)cccc2c1=O [Compound 1] was run?
Answer: −48.3%

Question: And the “median percent change in pERK relative to baseline” value (75 mg QD, Day 10, 24 hours post last dose)?
Answer: −39.8%

Question: And the “median change in pERK relative to baseline” value (75 mg single dose, 3 hours post-dose)?
Answer: −86.8%

Question: What about the “median change in pERK relative to baseline” value (75 mg single dose, 12 hours post-dose) of the same compound?
Answer: −51.3%

Question: What about the “pERK Signal, % Inhibition” value (75 mg single dose, Day 1 1 hour, mean (SD)) of the same compound?
Answer: 56.4 (13.04) %

Question: What about the “pERK Signal, % Inhibition” value (75 mg single dose, Day 1 1 hour, median) of the same compound?
Answer: 62.9%

Question: And the “pERK Signal, % Inhibition” value (75 mg single dose, Day 1 3 hours, mean (SD))?
Answer: 82.7 (10.42) %

Question: What about the “pERK Signal, % Inhibition” value (75 mg single dose, Day 1 3 hours, median) of the same compound?
Answer: 86.8%

Question: What about the “pERK Signal, % Inhibition” value (75 mg single dose, Day 1 12 hours, mean (SD)) of the same compound?
Answer: 52.2 (6.53) %

Question: What about the “pERK Signal, % Inhibition” value (75 mg single dose, Day 1 12 hours, median) of the same compound?
Answer: 51.3%

Question: And the “pERK Signal, % Inhibition” value (75 mg single dose, Day 1 24 hours, mean (SD))?
Answer: 33.6 (4.73) %

Question: What about the “pERK Signal, % Inhibition” value (75 mg single dose, Day 1 24 hours, median) of the same compound?
Answer: 33.6%

Question: And the “median percent change in pERK relative to baseline” value (300 mg QD, Day 10, 12 hours post-last dose)?
Answer: −95.7%

Question: What about the “median percent change in pERK relative to baseline” value (300 mg QD, Day 10, 24 hours post last dose) of the same compound?
Answer: −91.6%

Question: And the “median change in pERK relative to baseline” value (300 mg single dose, 3 hours post-dose)?
Answer: −95.6%

Question: And the “median change in pERK relative to baseline” value (300 mg single dose, 12 hours post-dose)?
Answer: −76.6%

Question: And the “pERK Signal, % Inhibition” value (300 mg single dose, Day 1 1 hour, mean (SD))?
Answer: 32.2 (35.11) %

Question: And the “pERK Signal, % Inhibition” value (300 mg single dose, Day 1 1 hour, median)?
Answer: 29.1%

Question: What about the “pERK Signal, % Inhibition” value (300 mg single dose, Day 1 3 hours, mean (SD)) of the same compound?
Answer: 93.4 (5.08) %

Question: And the “pERK Signal, % Inhibition” value (300 mg single dose, Day 1 3 hours, median)?
Answer: 95.6%

Question: What about the “pERK Signal, % Inhibition” value (300 mg single dose, Day 1 12 hours, mean (SD)) of the same compound?
Answer: 76.0 (7.04) %

Question: What about the “pERK Signal, % Inhibition” value (300 mg single dose, Day 1 12 hours, median) of the same compound?
Answer: 76.7%

Question: What about the “pERK Signal, % Inhibition” value (300 mg single dose, Day 1 24 hours, mean (SD)) of the same compound?
Answer: 66.4 (2.19) %

Question: What about the “pERK Signal, % Inhibition” value (300 mg single dose, Day 1 24 hours, median) of the same compound?
Answer: 65.3%

Question: What about the “median percent change in pERK relative to baseline” value (600 mg BID, Day 10, 12 hours post-last dose) of the same compound?
Answer: −100.2%

Question: And the “median percent change in pERK relative to baseline” value (600 mg BID, Day 10, 24 hours post last dose)?
Answer: −101.5%

Question: What about the “median percent change in pERK relative to baseline” value (900 mg QD, Day 10, 12 hours post-last dose) of the same compound?
Answer: −96.7%

Question: And the “median percent change in pERK relative to baseline” value (900 mg QD, Day 10, 24 hours post last dose)?
Answer: −98.5%

Question: What about the “median change in pERK relative to baseline” value (900 mg single dose, 3 hours post-dose) of the same compound?
Answer: −99.9%

Question: And the “median change in pERK relative to baseline” value (900 mg single dose, 12 hours post-dose)?
Answer: −92.1%

Question: What about the “pERK Signal, % Inhibition” value (900 mg single dose, Day 1 1 hour, mean (SD)) of the same compound?
Answer: 74.5 (38.94) %

Question: And the “pERK Signal, % Inhibition” value (900 mg single dose, Day 1 1 hour, median)?
Answer: 97.9%

Question: What about the “pERK Signal, % Inhibition” value (900 mg single dose, Day 1 3 hours, mean (SD)) of the same compound?
Answer: 99.8 (2.98) %

Question: And the “pERK Signal, % Inhibition” value (900 mg single dose, Day 1 12 hours, mean (SD))?
Answer: 92.7 (3.10) %

Question: And the “pERK Signal, % Inhibition” value (900 mg single dose, Day 1 12 hours, median)?
Answer: 92.1%

Question: What about the “pERK Signal, % Inhibition” value (900 mg single dose, Day 1 24 hours, mean (SD)) of the same compound?
Answer: 83.6 (7.00) %

Question: And the “pERK Signal, % Inhibition” value (900 mg single dose, Day 1 24 hours, median)?
Answer: 85.8%

Question: What about the “median change in pERK relative to baseline” value (1500 mg single dose, 3 hours post-dose) of the same compound?
Answer: −99%

Question: What about the “median change in pERK relative to baseline” value (1500 mg single dose, 12 hours post-dose) of the same compound?
Answer: −96.3%

Question: What about the “pERK Signal, % Inhibition” value (1500 mg single dose, Day 1 1 hour, mean (SD)) of the same compound?
Answer: 74.8 (45.62) %

Question: What about the “pERK Signal, % Inhibition” value (1500 mg single dose, Day 1 1 hour, median) of the same compound?
Answer: 97.3%

Question: And the “pERK Signal, % Inhibition” value (1500 mg single dose, Day 1 3 hours, mean (SD))?
Answer: 92.8 (16.61) %

Question: What about the “pERK Signal, % Inhibition” value (1500 mg single dose, Day 1 3 hours, median) of the same compound?
Answer: 99.0%

Question: What about the “pERK Signal, % Inhibition” value (1500 mg single dose, Day 1 12 hours, mean (SD)) of the same compound?
Answer: 93.0 (6.35) %

Question: What about the “pERK Signal, % Inhibition” value (1500 mg single dose, Day 1 12 hours, median) of the same compound?
Answer: 96.3%

Question: What about the “pERK Signal, % Inhibition” value (1500 mg single dose, Day 1 24 hours, mean (SD)) of the same compound?
Answer: 94.4 (2.50) %

Question: What about the “pERK Signal, % Inhibition” value (1500 mg single dose, Day 1 24 hours, median) of the same compound?
Answer: 94.2%

Question: What about the “time of maximum PD effect” value (Day 10 of multiple doses, post-last dose) of the same compound?
Answer: 2 to 4 h

Question: What about the inhibition at 75 mg (Day 1 1 hour, mean (SD)) of the same compound?
Answer: 47.9%

Question: What about the inhibition at 75 mg (Day 1 1 hour, median) of the same compound?
Answer: 44.9%

Question: And the inhibition at 75 mg (Day 1 3 hours, mean (SD))?
Answer: 67.5%

Question: And the inhibition at 75 mg (Day 1 3 hours, median)?
Answer: 79.6%

Question: What about the inhibition at 75 mg (Day 1 12 hours, mean (SD)) of the same compound?
Answer: 26.1%

Question: And the inhibition at 75 mg (Day 1 12 hours, median)?
Answer: 32.4%

Question: What about the inhibition at 75 mg (Day 10 1 hour, mean (SD)) of the same compound?
Answer: 62.2%

Question: And the inhibition at 75 mg (Day 10 1 hour, median)?
Answer: 62.7%

Question: What about the inhibition at 75 mg (Day 10 3 hours, mean (SD)) of the same compound?
Answer: 85.4%

Question: What about the inhibition at 75 mg (Day 10 3 hours, median) of the same compound?
Answer: 88.3%

Question: What about the inhibition at 75 mg (Day 10 12 hours, mean (SD)) of the same compound?
Answer: 43.5%

Question: And the inhibition at 75 mg (Day 10 12 hours, median)?
Answer: 48.3%

Question: And the inhibition at 75 mg (Day 10 24 hours, mean (SD))?
Answer: 12.6%

Question: What about the inhibition at 75 mg (Day 10 24 hours, median) of the same compound?
Answer: 39.8%

Reference: patent US20250213550A1, “COMPOUNDS AND METHODS FOR TREATING INFLAMMATORY BOWEL DISEASE” (Gilead Sciences, Inc., priority 2023, published 2025)
